Here are results for four compounds from patent US9572792B2, “Coumarin compounds as receptor modulators with therapeutic utility” (Allergan, Inc., priority 2009, dated 2017).

The target in the assay is human S1P1 receptor (Homo sapiens (Human), UniProt P21453). The experiment in a line: GTP γ35S binding assay. Particulars: S1P1 receptor from GTP γ35S; membranes of cells stably expressing the S1P1 receptor. It is filed as biochemical. As to the method:
The S1P1 activity of the compounds according to the invention, were tested using the GTP γ^35S binding assay. The compounds were assessed for their ability to activate or block activation of the human S1P1 receptor in cells stably expressing the S1P1 receptor.
GTP γ^35S binding was measured in the medium containing (mM) HEPES 25, pH 7.4, MgCl2 10, NaCl 100, dithiothreitol 0.5, digitonin 0.003%, 0.2 nM GTP γ^35S, and 5 μg membrane protein in a volume of 150 μl. Test compounds were included in the concentration range from 0.08 to 5,000 nM unless indicated otherwise. Membranes were incubated with 100 μM 5′-adenylylimidodiphosphate for 30 min, and subsequently with 10 μM GDP for 10 min on ice. Drug solutions and membrane were mixed, and then reactions were initiated by adding GTP γ^35S and continued for 30 min at 25° C. Reaction mixtures were filtered over Whatman GF/B filters under vacuum, and washed three times with 3 mL of ice-cold buffer (HEPES 25, pH7.4, MgCl2 10 and NaCl 100). Filters were dried and mixed with scintillant, and counted for ^35S activity using a 8-counter. Agonist-induced GTP γ^35S binding was obtained by subtracting that in the absence of agonist. Binding data were analyzed using a non-linear regression method. In case of antagonist assay, the reaction mixture contained 10 nM S1P in the presence of test antagonist at concentrations ranging from 0.08 to 5000 nM.
S1P1 receptor from GTP γ^35S: nM, (EC50),
Background: GTPγS resists hydrolysis and so accumulates on activated G proteins.

Sequence of human S1P1 receptor (P21453 whole entry): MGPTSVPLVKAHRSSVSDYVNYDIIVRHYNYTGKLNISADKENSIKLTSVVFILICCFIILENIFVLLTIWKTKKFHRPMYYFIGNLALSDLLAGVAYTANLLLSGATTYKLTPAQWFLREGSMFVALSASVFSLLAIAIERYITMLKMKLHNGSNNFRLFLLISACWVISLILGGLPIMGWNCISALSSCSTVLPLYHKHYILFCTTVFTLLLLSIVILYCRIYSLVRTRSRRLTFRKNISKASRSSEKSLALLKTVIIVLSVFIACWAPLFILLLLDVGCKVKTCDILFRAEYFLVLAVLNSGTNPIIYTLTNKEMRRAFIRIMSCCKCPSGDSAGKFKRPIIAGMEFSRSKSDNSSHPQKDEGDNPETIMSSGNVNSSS

Take `CCCc1c(OC)ccc2cc(C(=O)Nc3ccccc3Br)c(=O)oc12` [Compound 5, N-(2-bromophenyl)-7-methoxy-2-oxo-8-propyl-2H-chromene-3-carboxamide]: the EC50 was found to be 26.4 nM.

As for `CCCc1c(OC)ccc2cc(C(=O)Nc3ccncc3Br)c(=O)oc12` [Compound 6, N-(3-bromopyridin-4-yl)-7-methoxy-2-oxo-8-propyl-2H-chromene-3-carboxamide], it took 19 nM to reach a half-maximal effect (EC50).

Take `CCCc1c(OC)ccc2cc(C(=O)Nc3ccc(S(N)(=O)=O)cc3Br)c(=O)oc12` [Compound 38, N-[4-(aminosulfonyl)-2-bromophenyl]-7-methoxy-2-oxo-8-propyl-2H-chromene-3-carboxamide]: the EC50 came out at 3.5 nM.

`CCCc1c(OC)ccc2cc(C(=O)Nc3ccc(NC(=O)[C@H](N)CCC(=O)O)cc3C)c(=O)oc12` [Compound 62, (4R)-4-amino-5-[(4-{[(7-methoxy-2-oxo-8-propyl-2H-chromen-3-yl)carbonyl]amino}-3-methylphenyl)amino]-5-oxopentanoic acid] returned an EC50 of 3.1 nM.

By EC50 is commonly meant the concentration at which the effect is half-maximal. A low value points to a more potent agent.
